Reference: ChEMBL document CHEMBL5352419, “Design, synthesis, and biological evaluation of tetrahydroquinoline amphiphiles as membrane-targeting antimicrobials against pathogenic bacteria and fungi” (Eur J Med Chem, 2022)
≈ marks a conversion by molar mass, not a printed value. Calls of active or inactive are those of the source. No cut-off for these calls is given here.

What was measured:
Candida albicans [1] = experiment: Antimicrobial activity against Candida albicans CMCC98001 assessed as fungal growth inhibition incubated for 48 hrs in presence of 3220 ug/mL Na+ by Sabouraud Dextrose broth based dilution assay; assay type: functional
Acinetobacter baumannii [2] = experiment: Antimicrobial activity against Acinetobacter baumannii ATCC17978 assessed as bacterial growth inhibition incubated for 24 hrs in presence of 3220 ug/mL Na+ by Muller Hinton broth based dilution assay; assay type: functional
Escherichia coli [3] = experiment: Antibiofilm activity against Escherichia coli ATCC25922 assessed as inhibition of biofilm formation at 0.39 ug/mL incubated for 24 hrs by crystal violet staining based analysis relative to control; assay type: functional
Cell membrane [4] = experiment: Disruption of membrane integrity in Candida albicans ATCC10231 assessed as red fluorescence at 8 times of MIC incubated for 2 hrs under dark condition by SYTO 9 and PI staining based laser confocal microscopy analysis
[5] = Hemolytic activity in rabbit RBC incubated for 1 hr by absorbance based microplate reader assay; assay type: toxicity, cell-based, Oryctolagus cuniculus, Erythrocyte; details: rabbit red blood cells (erythrocytes)
[6] = Cytotoxicity against mouse NCTC clone 929 cells assessed as viable cells at 12.5 ug/mL incubated for 24 hrs by CCK-8 assay relative to control; assay type: toxicity, cell-based; details: NCTC clone 929 (L929) cells, at 12.5 µg/mL, read-out: Activity
Escherichia coli [7] = experiment: Antimicrobial activity against Escherichia coli ATCC25922 assessed as bacterial killing at 1 to 8 times of MIC measured upto 24 hrs by time-kill kinetics assay; assay type: functional, organism-based
Escherichia coli [8] = experiment: Disruption of preformed biofilm in Escherichia coli ATCC25922 assessed as residual preformed biofilm at 3.125 ug/mL incubated for 24 hrs by crystal violet staining based analysis relative to control; assay type: functional; details: dose 3.125 µg/ml
Escherichia coli [9] = experiment: Antimicrobial activity against Escherichia coli ATCC25922 assessed as log reduction in microbial load at 4 times of MIC measured at 1 hr by time-kill kinetics assay; assay type: functional
Staphylococcus aureus [10] = experiment: Antimicrobial activity against Staphylococcus aureus ATCC29213 assessed as log reduction in microbial load at 4 times of MIC measured at 1 hr by time-kill kinetics assay; assay type: functional
Staphylococcus aureus [11] = experiment: Disruption of preformed biofilm in Staphylococcus aureus ATCC29213 assessed as residual preformed biofilm at 3.125 ug/mL incubated for 24 hrs by crystal violet staining based analysis relative to control; assay type: functional; details: dose 3.125 µg/ml
Staphylococcus aureus [12] = experiment: Antimicrobial activity against methicillin-resistant Staphylococcus aureus NCTC10442 assessed as bacterial growth inhibition incubated for 24 hrs in presence of 24.3 ug/mL Mg2+ by Muller Hinton broth based dilution assay; assay type: functional
Cell membrane [13] = experiment: Disruption of membrane integrity in Candida albicans ATCC10231 assessed as increase in fluorescence intensity at 1 to 8 times of MIC measured for 1 hr by SYTOX green dye based fluorescence analysis
Cell membrane [14] = experiment: Disruption of membrane integrity in Escherichia coli ATCC25922 assessed as red fluorescence at 8 times of MIC incubated for 2 hrs under dark condition by SYTO 9 and PI staining based laser confocal microscopy analysis
Staphylococcus aureus [15] = experiment: Antimicrobial activity against Staphylococcus aureus ATCC29213 assessed as bacterial growth inhibition incubated for 24 hrs in presence of 100 ug/mL Ca2+ by Muller Hinton broth based dilution assay; assay type: functional
Acinetobacter baumannii [16] = experiment: Antimicrobial activity against Acinetobacter baumannii ATCC17978 assessed as bacterial growth inhibition incubated for 24 hrs in presence of 24.3 ug/mL Mg2+ by Muller Hinton broth based dilution assay; assay type: functional
Escherichia coli [17] = experiment: Disruption of preformed biofilm in Escherichia coli ATCC25922 assessed as residual preformed biofilm at 12.5 ug/mL incubated for 24 hrs by crystal violet staining based analysis relative to control; assay type: functional; details: dose 12.5 µg/ml
Candida albicans [18] = experiment: Antimicrobial activity against Candida albicans ATCC10231 assessed as fungal killing at 4 times of MIC measured at 0.5 hr by time-kill kinetics assay; assay type: functional, organism-based
Candida albicans [19] = experiment: Antimicrobial activity against Candida albicans ATCC10231 assessed as fungal killing at 8 times of MIC measured at 0.5 hr by time-kill kinetics assay; assay type: functional, organism-based
[20] = Cytotoxicity against mouse NCTC clone 929 cells assessed as viable cells at 6.25 ug/mL incubated for 24 hrs by CCK-8 assay relative to control; assay type: toxicity, cell-based; details: NCTC clone 929 (L929) cells, at 6.25 µg/mL, read-out: Activity
Acinetobacter baumannii [21] = experiment: Antimicrobial activity against Acinetobacter baumannii R2889 assessed as bacterial growth inhibition incubated for 24 hrs by Muller Hinton broth based dilution assay; assay type: functional
Escherichia coli [22] = experiment: Antimicrobial activity against Escherichia coli ATCC25922 assessed as bacterial growth inhibition incubated for 24 hrs in presence of 24.3 ug/mL Mg2+ by Muller Hinton broth based dilution assay; assay type: functional
Candida albicans [23] = experiment: Antimicrobial activity against Candida albicans ATCC10231 assessed as fungal killing at 8 times of MIC measured at 1 hr by time-kill kinetics assay; assay type: functional, organism-based

Compound `CCCCCCCCCN1CCCc2cc(OCCCCNC(=N)N)ccc21` has an MIC (Candida albicans [1]) of 0.78 µg/mL, an MIC (Acinetobacter baumannii [2]) of 3.12 µg/mL and an inhibition at 0.39 µg/mL (Escherichia coli [3]) of 21.6%. The Activity (Cell membrane [4]) was “Active”, the HC50 at 1 h [5] was over 200 µg/mL and the viability at 24 h, 12.5 ug/mL [6] was 89.4%. The Activity (Escherichia coli [7]) was “Dose-Dependent Effect”, the Activity (Escherichia coli [8]) was 32.54% and the “log(activity)” value (Escherichia coli [9]) was over 3. The “log(activity)” value (Staphylococcus aureus [10]) was over 3, the Activity (Staphylococcus aureus [11]) was 10.76% and the MIC (Staphylococcus aureus [12]) was 0.78 µg/mL. The Activity (Cell membrane [13]) was “Dose-Dependent Effect”, the Activity (Cell membrane [14]) was “Active” and the MIC (Staphylococcus aureus [15]) was 0.78 µg/mL. For the same compound, the MIC (Acinetobacter baumannii [16]) was 3.12 µg/mL, the Activity (Escherichia coli [17]) was 8.81% and the Activity (Candida albicans [18]) was “Active”. The Activity (Candida albicans [19]) was “Active”, the viability at 24 h, 6.25 ug/mL [20] was 92.1% and the MIC (Acinetobacter baumannii [21]) was 3.12 µg/mL (≈ 8.04 µM). It also gave an MIC (Escherichia coli [22]) of 1.56 µg/mL.

In the case of `CC(C)=CCN1CCCc2cc(OCCCCCCCCNC(=N)N)ccc21`, the MIC (Candida albicans [1]) is reported as 0.78 µg/mL, the MIC (Acinetobacter baumannii [2]) is reported as 3.12 µg/mL and the inhibition at 0.39 µg/mL (Escherichia coli [3]) is reported as 13.5%. The Activity (Cell membrane [4]) was “Active”, the HC50 at 1 h [5] was over 200 µg/mL and the Activity (Candida albicans [23]) was “Active”. The viability at 24 h, 12.5 ug/mL [6] was 89.3%, the Activity (Escherichia coli [7]) was “Dose-Dependent Effect” and the Activity (Escherichia coli [8]) was 47.23%. For the same compound, the “log(activity)” value (Escherichia coli [9]) was over 3, the “log(activity)” value (Staphylococcus aureus [10]) was over 3 and the Activity (Staphylococcus aureus [11]) was 29.55%. For the same compound, the MIC (Staphylococcus aureus [12]) was 0.78 µg/mL, the Activity (Cell membrane [13]) was “Dose-Dependent Effect” and the Activity (Cell membrane [14]) was “Active”. It also gave an MIC (Staphylococcus aureus [15]) of 0.78 µg/mL, an MIC (Acinetobacter baumannii [16]) of 3.12 µg/mL and an Activity (Escherichia coli [17]) of 6.85%. It also gave a viability at 24 h, 6.25 ug/mL [20] of 91.2%, an MIC (Acinetobacter baumannii [21]) of 3.12 µg/mL (≈ 8.08 µM) and an MIC (Escherichia coli [22]) of 3.12 µg/mL.
